In PubChem BioAssay (NCI) one finds GI50 and TGI data, which are given here for five compounds.

Each structure is given as a SMILES string.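 In this assay, cells in 96-well plates receive the compound at five concentrations for 48 hours. Endpoints are linearly interpolated between the surrounding concentrations. GI50: concentration for 50% inhibition of growth. TGI: concentration producing complete growth inhibition.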

Test systems include EKVX NSCLC; NCI/ADR-RES ovarian; NCI-H522 lung; OVCAR-3 ovarian; RPMI-8226 leukemia; HCT-116 colon; SK-MEL-5 melanoma; IGROV1 ovarian; RXF 393 renal; SW-620 colon.
Holding throughout (test): inhibition of tumour cell growth, NCI panel, 48 h

Turning to `NS(=O)(=O)c1ccc(-n2nc3c(c2-c2cccs2)Cc2ccccc2-3)cc1`, the GI50 was 11.9 µM in the test on EKVX NSCLC; 12.4 µM with NCI/ADR-RES ovarian; 12.4 µM in the test with NCI-H522 lung; 14.4 µM with OVCAR-3 ovarian; 6.68 µM with RPMI-8226 leukemia; 7.67 µM in the test on HCT-116 colon. For the same compound, the GI50 is 10.5 µM in the test with SK-MEL-5 melanoma, 2.49 µM with IGROV1 ovarian, 17.4 µM in the test with RXF 393 renal and 10.2 µM in the test with SW-620 colon. The TGI in the test with EKVX NSCLC was 29.4 µM; in the test with NCI/ADR-RES ovarian, 26.1 µM; in the test with NCI-H522 lung, 29.8 µM; in the test on OVCAR-3 ovarian, 44.4 µM; in the test with RPMI-8226 leukemia it was 26.6 µM; in the test with HCT-116 colon it was 22.7 µM. Also, the TGI in the test with SK-MEL-5 melanoma worked out at 22.5 µM; in the test on IGROV1 ovarian, 15.5 µM; with RXF 393 renal, 40.7 µM; with SW-620 colon, 23.4 µM.
For the compound `O=C(Nc1nc2c(C(F)(F)F)cccc2s1)c1cc(Cl)ccc1O`, the GI50 with EKVX NSCLC was 0.25 µM; in the test with NCI/ADR-RES ovarian, 0.311 µM; with NCI-H522 lung, 0.285 µM; in the test on OVCAR-3 ovarian, 0.375 µM; in the test with RPMI-8226 leukemia it was 0.203 µM; in the test with HCT-116 colon, 0.352 µM. Besides, the GI50 with SK-MEL-5 melanoma was 0.193 µM; in the test on IGROV1 ovarian it was 0.511 µM; in the test on RXF 393 renal, 0.257 µM; in the test with SW-620 colon it was 0.364 µM. The TGI in the test with EKVX NSCLC worked out at 5.75 µM; with NCI/ADR-RES ovarian, 21.6 µM; in the test on NCI-H522 lung it was 14 µM; in the test on OVCAR-3 ovarian, 74.7 µM; with RPMI-8226 leukemia, 0.52 µM; in the test on HCT-116 colon, 11.2 µM. Also, the TGI was 0.446 µM in the test with SK-MEL-5 melanoma, 35 µM in the test on IGROV1 ovarian, 0.772 µM in the test with RXF 393 renal and 16.3 µM in the test with SW-620 colon.
Take `CCN1CCN(c2ccc(NC(=O)Nc3nc4ccc(-c5ccccc5OC)cc4s3)cc2)CC1`: the GI50 in the test with EKVX NSCLC is 1.51 µM; in the test on NCI/ADR-RES ovarian, 1.72 µM; with NCI-H522 lung, 1.75 µM; in the test with OVCAR-3 ovarian, 1.64 µM; in the test on RPMI-8226 leukemia it was 2.06 µM; with HCT-116 colon, 1.58 µM. Also, the GI50 in the test with SK-MEL-5 melanoma was 1.73 µM; in the test with IGROV1 ovarian, 1.87 µM; in the test on RXF 393 renal, 1.7 µM; in the test on SW-620 colon, 1.94 µM. For the same compound, the TGI with EKVX NSCLC stood at 3.12 µM; in the test with NCI/ADR-RES ovarian it was 3.35 µM; with NCI-H522 lung, 3.5 µM; in the test on OVCAR-3 ovarian it was 3.11 µM; with RPMI-8226 leukemia, 4.6 µM; in the test with HCT-116 colon it was 3.01 µM. Besides, the TGI turned out to be 3.12 µM in the test with SK-MEL-5 melanoma, 3.61 µM in the test with IGROV1 ovarian, 3.3 µM in the test on RXF 393 renal and 3.55 µM with SW-620 colon.
`Oc1c(C(c2ccc(F)cc2)N2CCCCC2)ccc2cncnc12` (stereo not given): the GI50 with EKVX NSCLC was 0.672 µM; with NCI/ADR-RES ovarian it was 2.58 µM; with NCI-H522 lung, 0.353 µM; in the test on OVCAR-3 ovarian, 0.783 µM; in the test with RPMI-8226 leukemia, 0.555 µM; in the test with HCT-116 colon it was 0.364 µM. The GI50 is 0.529 µM with SK-MEL-5 melanoma, 0.532 µM with IGROV1 ovarian, 0.416 µM with RXF 393 renal and 0.478 µM in the test on SW-620 colon. The TGI in the test on EKVX NSCLC was 45.9 µM; with NCI/ADR-RES ovarian, more than 100 µM; with NCI-H522 lung it was 10.2 µM; in the test on OVCAR-3 ovarian, more than 100 µM; with RPMI-8226 leukemia it was more than 100 µM; with HCT-116 colon, more than 100 µM. Also, the TGI was 3.63 µM in the test on SK-MEL-5 melanoma, 21.7 µM with IGROV1 ovarian, 12.2 µM in the test with RXF 393 renal and more than 100 µM in the test on SW-620 colon.
For the compound `Cc1ccsc1C(NC(=O)c1ccccc1)c1cc(Cl)c2cccnc2c1O` (stereo not given), the GI50 is 0.371 µM with EKVX NSCLC; 0.284 µM in the test on NCI/ADR-RES ovarian; 0.271 µM with NCI-H522 lung; 0.354 µM in the test on OVCAR-3 ovarian; 0.475 µM in the test on RPMI-8226 leukemia; 0.431 µM in the test on HCT-116 colon. In addition, the GI50 with SK-MEL-5 melanoma was 0.583 µM; in the test with IGROV1 ovarian it was 0.55 µM; in the test with RXF 393 renal it was 1.77 µM; in the test on SW-620 colon it was 0.4 µM. Further, the TGI is 10.9 µM with EKVX NSCLC; 7.18 µM in the test with NCI/ADR-RES ovarian; 2.11 µM with NCI-H522 lung; 12.1 µM with OVCAR-3 ovarian; 16.3 µM in the test on RPMI-8226 leukemia; 13.1 µM in the test with HCT-116 colon. Moreover, the TGI in the test on SK-MEL-5 melanoma amounted to 5.14 µM; with IGROV1 ovarian, 4.77 µM; in the test on RXF 393 renal, 6.08 µM; in the test on SW-620 colon, 15 µM.
